Where “and” joins values, the source holds several entries; their conditions need not be identical. Equal entries are not always repeated.
Experiments:
[1] = test system: Colonic Threshold in Normal Rats; test: Colonic distension pain threshold in normal rats; format: in vivo, Male Sprague-Dawley rats; conditions: rat, in vivo
Protocol: (§1) Male Sprague-Dawley rats weighing 340 to 400 g were used in the study. The animals were housed three per cage in a regulated environment (20 ± 1°C, 50 ± 5% humidity, with light 8:00 AM to 8:00 PM). Under anethesia (ketamine 80 mg/kg i.p.; acepromazin 12 mg/kg i.p.), TNBS (50 mg/kg), or saline (1.5 mL/kg) was injected into the proximal colon (1 cm from the cecum). After the surgery, animals were individually housed in the regulated environment.
(§2) A balloon catheter (5-6 cm length) was inserted through the anus into the colon and kept in position (tip of balloon 5 cm from the anus) by taping the catheter to the base of the tail. The balloon was progressively inflated by step of 5 mm Hg, from 0 to 75 mm Hg, each step of inflation lasting 30 seconds. Each cycle of colonic distension was controlled by a standard barostat. The threshold corresponds to the pressure which produced the first abdominal contraction, at which time the cycle of distension was discontinued. To determine the colonic threshold, four cycles of distension were performed on the same animal.
In a first series of experiments, a group of eight rats treated with saline were subjected to a colonic distension session.
(§3) All test compounds were dissolved in saline except TNBS. TNBS was dissolved in EtOH 30% (w/v). Subcutaneous injection of vehicle was given in a volume of […].
(§4) Statistical significance between each group was determined using a one-way ANOVA followed by Student's unpaired t-test. Differences were considered statistically significant at p <0.05.

[2] = test system: TNBS-Induced Chronic Colonic Allodynia; test: TNBS-induced chronic colonic allodynia in rats (colonic distension threshold); format: in vivo, Male Sprague-Dawley rats; conditions: rat, in vivo
Protocol: GABA analogs were evaluated in rats suffering from chronic visceral allodynia induced by trinitrobenzene sulfonic acid (TNBS).
In humans, digestive disorders are often associated with visceral pain. In these pathologies, the visceral pain threshold is decreased, indicating a visceral hypersensitivity. Consequently, the following study was designed to evaluate the effect of injection of TNBS into the colon on visceral pain threshold in an experimental model of colonic distension.
as §1, §2
In a second series, a group of eight rats treated with TNBS were subjected to a colonic distension session.
In a third series, a group of eight rats treated with TNBS received a subcutaneous (sc) injection of gabapentin or CI-1008 30 minutes prior to initiation of the colonic distension cycle.
as §3, §4
Pain threshold (pressure of distension inducing the first abdominal contraction) after distal colonic distension was determined at Day 7 in two groups of awake rats: control animals and TNBS-treated animals. […] Inflammatory parameters (colon weight, area of hyperemia and necrosis and colonic myeloperoxidase content) were measured in the proximal colon at Day 7 after TNBS treatment.
Gabapentin (100, 300, and 500 mg/kg sc) and CI-1008 (30, 60, 100, and 200 mg/kg sc) were administered 30 minutes before colonic distension and measurement of the inflammatory parameters.

CN1CC[C@]23c4c5ccc(O)c4O[C@H]2[C@@H](O)C=C[C@H]3[C@H]1C5 [Morphine]
colonic pain threshold in normal conditions (control animals), in words [1]: significantly increased
Colonic Threshold [2]: 34.22 mm Hg and 46.09 mm Hg and 64.84 mm Hg
TNBS-induced decrease in pain threshold after colonic distension (in words) [2]: completely suppressed

Source: patent publication EP0974351A2, “Medicament for preventing and treating gastrointestinal damage” (JOUVEINAL, priority 1998, dated 2000)
